# Test results published in patent US9029343B2, “Modulators of histone methyltransferase, and methods of use thereof” (Epizyme, Inc., priority 2010, dated 2015).
# Biological target: EZH2 (Homo sapiens, UniProt Q15910)
# Experiment: EZH2 IC50 (FIGS. 7A and 7B)
# Assay type: biochemical
# Details: not given
# Chain of EZH2 (Q15910 whole entry, species assumed): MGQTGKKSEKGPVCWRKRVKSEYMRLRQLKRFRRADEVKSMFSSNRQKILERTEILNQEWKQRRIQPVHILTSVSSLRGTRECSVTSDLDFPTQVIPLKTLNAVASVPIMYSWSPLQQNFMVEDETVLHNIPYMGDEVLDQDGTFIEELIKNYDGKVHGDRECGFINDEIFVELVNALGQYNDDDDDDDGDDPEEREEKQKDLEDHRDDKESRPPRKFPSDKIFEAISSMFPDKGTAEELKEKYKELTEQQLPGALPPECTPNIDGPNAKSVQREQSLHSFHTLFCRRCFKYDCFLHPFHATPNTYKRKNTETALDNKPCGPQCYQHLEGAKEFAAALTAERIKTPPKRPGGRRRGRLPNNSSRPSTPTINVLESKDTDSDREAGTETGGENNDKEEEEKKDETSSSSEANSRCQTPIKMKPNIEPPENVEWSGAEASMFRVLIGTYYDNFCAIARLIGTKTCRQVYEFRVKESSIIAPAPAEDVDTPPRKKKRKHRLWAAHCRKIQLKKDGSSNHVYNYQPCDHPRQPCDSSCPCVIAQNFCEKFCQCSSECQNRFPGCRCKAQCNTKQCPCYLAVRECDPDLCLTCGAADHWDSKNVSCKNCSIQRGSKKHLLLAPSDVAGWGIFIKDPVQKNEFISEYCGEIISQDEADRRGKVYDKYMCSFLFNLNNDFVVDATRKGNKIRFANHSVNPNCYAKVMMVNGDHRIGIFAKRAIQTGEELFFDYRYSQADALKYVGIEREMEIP
# Chain of EZH2 (O75530 whole entry partner, species assumed): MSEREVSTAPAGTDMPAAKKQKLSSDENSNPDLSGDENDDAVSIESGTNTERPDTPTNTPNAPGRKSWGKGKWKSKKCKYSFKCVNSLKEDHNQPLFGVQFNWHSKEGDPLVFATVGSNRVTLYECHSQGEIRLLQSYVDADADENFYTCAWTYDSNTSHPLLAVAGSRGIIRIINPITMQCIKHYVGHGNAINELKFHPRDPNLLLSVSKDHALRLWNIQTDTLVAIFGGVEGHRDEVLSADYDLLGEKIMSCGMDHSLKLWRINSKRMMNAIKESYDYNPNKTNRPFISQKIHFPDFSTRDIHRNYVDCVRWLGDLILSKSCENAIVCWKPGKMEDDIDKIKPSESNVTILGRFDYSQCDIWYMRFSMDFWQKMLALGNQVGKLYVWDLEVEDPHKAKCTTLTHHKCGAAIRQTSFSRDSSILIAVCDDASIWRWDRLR
# Chain of EZH2 (Q15022 whole entry partner, species assumed): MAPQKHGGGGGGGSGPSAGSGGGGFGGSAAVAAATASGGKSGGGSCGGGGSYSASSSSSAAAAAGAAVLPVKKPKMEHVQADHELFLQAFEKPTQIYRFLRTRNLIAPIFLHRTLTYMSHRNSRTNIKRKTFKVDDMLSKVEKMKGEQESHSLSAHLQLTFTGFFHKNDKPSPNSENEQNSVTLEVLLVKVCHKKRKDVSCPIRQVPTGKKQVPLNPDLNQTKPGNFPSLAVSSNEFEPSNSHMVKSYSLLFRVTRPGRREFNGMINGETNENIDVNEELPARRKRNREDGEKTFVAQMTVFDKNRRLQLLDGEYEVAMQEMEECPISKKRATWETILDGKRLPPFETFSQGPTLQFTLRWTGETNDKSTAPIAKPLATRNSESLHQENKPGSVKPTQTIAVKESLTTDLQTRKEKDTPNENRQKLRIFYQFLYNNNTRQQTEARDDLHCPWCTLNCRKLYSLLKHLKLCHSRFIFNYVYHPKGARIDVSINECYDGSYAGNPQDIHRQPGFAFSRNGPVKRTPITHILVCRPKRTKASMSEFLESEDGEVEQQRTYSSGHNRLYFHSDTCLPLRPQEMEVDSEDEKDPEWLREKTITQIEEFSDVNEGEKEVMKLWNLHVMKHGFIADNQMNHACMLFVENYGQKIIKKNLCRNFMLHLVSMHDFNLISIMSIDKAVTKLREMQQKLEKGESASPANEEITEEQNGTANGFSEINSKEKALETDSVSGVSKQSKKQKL
row,SMILES,IC50
1,CN(CCCNC(=O)Nc1ccc(-c2cscn2)cc1)C[C@H]1O[C@@H](n2cnc3c(N)ncnc32)[C@H](O)[C@@H]1O [Compound 190],> 50 µM
2,CC(=O)N(CCCNC(=O)Nc1ccc(C(C)(C)C)cc1)C[C@H]1O[C@@H](n2cnc3c(N)ncnc32)[C@H](O)[C@@H]1O [Compound 195],> 50 µM
3,CC(CNC(=O)Nc1ccc(C(C)(C)C)cc1)CN(C)C[C@H]1O[C@@H](n2cnc3c(N)ncnc32)[C@H](O)[C@@H]1O (some centres unmarked) [Compound 223],> 50 µM
4,CCN(CCCNC(=O)Nc1ccc(C(C)(C)C)cc1)C[C@H]1O[C@@H](n2cnc3c(N)ncnc32)[C@H](O)[C@@H]1O [Compound 169],> 50 µM
5,CN(CCCCCNC(=O)Nc1ccc(C(C)(C)C)cc1)C[C@H]1O[C@@H](n2cnc3c(N)ncnc32)[C@H](O)[C@@H]1O [Compound 213],> 50 µM
6,CN(CCCN(C)C(=O)Nc1ccc(C(C)(C)C)cc1)C[C@H]1O[C@@H](n2cnc3c(N)ncnc32)[C@H](O)[C@@H]1O [Compound 173],> 50 µM
7,CC(C)(C)c1ccc(NC(=O)NCCCN(C=O)C[C@H]2O[C@@H](n3cnc4c(N)ncnc43)[C@H](O)[C@@H]2O)cc1 [Compound 206],> 50 µM
8,CN(CCCOC(=O)Nc1ccc(C(C)(C)C)cc1)C[C@H]1O[C@@H](n2cnc3c(N)ncnc32)[C@H](O)[C@@H]1O [Compound 152],> 50 µM
9,CN(CCCCC(=O)Nc1ccc(C(C)(C)C)cc1)C[C@H]1O[C@@H](n2cnc3c(N)ncnc32)[C@H](O)[C@@H]1O [Compound 179],> 50 µM
10,CN(CCCNC(=O)Nc1ccc(C2CCCCC2)cc1)C[C@H]1O[C@@H](n2cnc3c(N)ncnc32)[C@H](O)[C@@H]1O [Compound 185],> 50 µM
11,CC(C)CN(CCCNC(=O)Nc1ccc(C(C)(C)C)cc1)C[C@H]1O[C@@H](n2cnc3c(N)ncnc32)[C@H](O)[C@@H]1O [Compound 209],> 50 µM
12,Cc1cccc(-c2ccc(NC(=O)NCCCN(C)C[C@H]3O[C@@H](n4cnc5c(N)ncnc54)[C@H](O)[C@@H]3O)cc2)c1 [Compound 199],> 50 µM
13,CN(CCCCNC(=O)Nc1ccc(C(C)(C)C)cc1)C[C@H]1O[C@@H](n2cnc3c(N)ncnc32)[C@H](O)[C@@H]1O [Compound 159],> 50 µM
14,CN(C[C@H]1O[C@@H](n2cnc3c(N)ncnc32)[C@H](O)[C@@H]1O)CC(C)(C)CNC(=O)Nc1ccc(C(C)(C)C)cc1 [Compound 163],> 50 µM
15,CN(CCCNC(=O)Nc1ccc(Oc2ccccc2N)cc1)C[C@H]1O[C@@H](n2cnc3c(N)ncnc32)[C@H](O)[C@@H]1O [Compound 183],> 50 µM
16,CN(C[C@H]1O[C@@H](n2cnc3c(N)ncnc32)[C@H](O)[C@@H]1O)CC1(CNC(=O)Nc2ccc(C(C)(C)C)cc2)CC1 [Compound 167],> 50 µM

# Test system: H3K4, H3K9 and H3K27 methylation in THP-1 cells
# Experiment: Methylation analysis: other histone methylation sites in THP-1 cells
# Assay type: cell-based, Human
# Details: antibodies to H3K4me3, H3K9me3, H3K27me2, H3K27me3
# Description: (§1) Cells were seeded at 5×10^5 cells/mL in a 12 well plate at a final volume of 2 mLs. Cells were dosed with compounds to the appropriate concentration from a 50 mM DMSO stock solution. Compound and media were refreshed every two days over the course of seven day incubation by counting cells using trypan blue exclusion (Vicell), pelleting at 200 g for 5 minutes and resuspending in fresh media containing compound at a final cell concentration of 5×10^5 cells/mL. Following compound incubation, histones were extracted from 1×10^6 cells using a commercial histone extraction kit (Active Motif). Purified histones were quantitated using the BCA protein assay (Pierce) with a BSA standard curve. 400 ng of isolated histones were fractionated by SDS-PAGE on a 4-20% gel and transferred to nitrocellulose membranes. Membranes were incubated with various primary and secondary antibodies and imaged on the Licor imaging system (Odyssey). The H3K79-Me2 rabbit polyclonal was purchased from Abcam. Other rabbit polyclonal antibodies including H3K4-Me3, H3K9-Me3, H3K27-Me2, and H3K27-Me3 were purchased from Cell Signaling Technologies (CST). A mouse monoclonal total H3 antibody was used as a loading control (CST). Fluorescently labeled secondary antibodies were purchased from Odyssey.
row,SMILES,"effect on sites targeted by other histone methyltransferases (H3K4, H3K9 and H3K27)"
1,"CN(CCCNC(=O)Nc1ccc(C(C)(C)C)cc1)C[C@H]1O[C@@H](n2cnc3c(N)ncnc32)[C@H](O)[C@@H]1O [Compound 118, 1-(3-((((2R,3S,4R,5R)-5-(6-amino-9H-purin-9-yl)-3,4-dihydroxytetrahydrofuran-2-yl)methyl)(methyl)amino)propyl)-3-(4-(tert-butyl)phenyl)urea]",did not affect

# Test system: H3K79me2 in THP-1 cells
# Experiment: Methylation analysis: cellular H3K79 dimethylation in THP-1 cells
# Assay type: cell-based, Human
# Details: 50 μM, seven days, western blot
# Description: THP-1 cells were incubated in the presence 50 μM of the indicated compounds for seven days. […] Following treatment, cells were harvested, and histones were extracted, fractionated by SDS-PAGE on a 4-20% gel, transferred to nitrocellulose membranes, and probed with antibodies to histone H3 and histone H3 dimethylated at lysine 79 (H3K79me2). Histones extracted from THP-1 cells expressing control (shNTC) and DOT1L targeting (shDOT1L) shRNAs were included as controls.
# as §1, with “Following compound incubation, histones were extracted from 1×10^6 cells using a commercial histone extraction kit (Active Motif).” left out
row,SMILES,cellular histone H3 lysine 79 dimethylation (H3K79me2) level
1,"CN(CCCNC(=O)Nc1ccc(C(C)(C)C)cc1)C[C@H]1O[C@@H](n2cnc3c(N)ncnc32)[C@H](O)[C@@H]1O [Compound 118, 1-(3-((((2R,3S,4R,5R)-5-(6-amino-9H-purin-9-yl)-3,4-dihydroxytetrahydrofuran-2-yl)methyl)(methyl)amino)propyl)-3-(4-(tert-butyl)phenyl)urea]",dramatically reduced

# Same assay, conditions: seven days, lowest concentration tested
row,SMILES,concentration at which reduction in H3K79me2 was still observed
1,"CN(CCCNC(=O)Nc1ccc(C(C)(C)C)cc1)C[C@H]1O[C@@H](n2cnc3c(N)ncnc32)[C@H](O)[C@@H]1O [Compound 118, 1-(3-((((2R,3S,4R,5R)-5-(6-amino-9H-purin-9-yl)-3,4-dihydroxytetrahydrofuran-2-yl)methyl)(methyl)amino)propyl)-3-(4-(tert-butyl)phenyl)urea]",≤ 0.4 µM

# Same assay, conditions: several concentrations
row,SMILES,concentration dependence of reduction in H3K79me2 levels
1,"CN(CCCNC(=O)Nc1ccc(C(C)(C)C)cc1)C[C@H]1O[C@@H](n2cnc3c(N)ncnc32)[C@H](O)[C@@H]1O [Compound 118, 1-(3-((((2R,3S,4R,5R)-5-(6-amino-9H-purin-9-yl)-3,4-dihydroxytetrahydrofuran-2-yl)methyl)(methyl)amino)propyl)-3-(4-(tert-butyl)phenyl)urea]",dose dependent reduction
